Measurements taken from paper PMC11881906, “Development of xanthone derivatives as effective broad-spectrum antimicrobials: Disrupting cell wall and inhibiting DNA synthesis” (Science Advances, 2025).
Converted amounts (≈) assume the structure as drawn. Where two headings read alike, the source gives them in different places.

Legend:
[1] = system: tested strains (Gram-positive and Gram-negative bacteria); assay: MIC, summary over the tested strains; assay type: cell-based
Description: MIC was determined using the broth microdilution method in accordance with Clinical and Laboratory Standards Institute guidelines. All compounds were dissolved in dimethyl sulfoxide (DMSO; final DMSO concentration of less than 0.5%) and sterile double-distilled water and then diluted with Mueller-Hinton broth (MHB). Each compound’s stock solution was serially twofold diluted, resulting in concentrations ranging from 0.39 to 100 μg/ml, and thereafter added to sterile 96-well plates. All bacterial cell suspensions were adjusted in MHB to attain a starting inoculum of 1 × 10^6 cells/ml. A total of 100 μl volume of the bacterial suspension was then added to each well. Following a 24-hour incubation at 37°C, the optical density at 600 nm (OD600) was confirmed by measuring absorbance at 600 nm with a BioTek microplate reader. […] All measurements were repeated three times with duplicates each time.

S. aureus ATCC 29213 [2] = assay: Serial passage resistance induction; assay type: cell-based, Staphylococcus aureus; conditions: 20-day passages at 0.5× MIC
Description: The bacteria were grown in a medium containing 0.5× MIC of each compound to prepare the bacterial suspension for the next MIC determination. The MICs were then recorded after incubation at 37°C for 24 hours. Daily passages were continued until the initial MIC increased by more than fourfold. The stability of acquired resistance was investigated by MIC determination and repeated for 20 days.

LPS = assay: Fluorescence-based binding assay; conditions: compound 1× MIC; LPS 0 to 2.5 μg/ml
Description: Changes in the fluorescence emission spectrum or intensity were assessed for compound XT17 with and without the presence of targeted proteins. The fluorescent properties of compound XT17 (excitation wavelength of 350 nm and emission wavelength of 440 nm) were measured using a fluorescent plate reader upon binding to the targets. […] The changes in the emission from a constant concentration of fluorescent compound were monitored after adding increasing concentrations of LTA or LPS. All measurements were repeated three times with duplicates each time.

[3] = Plasma pharmacokinetic study; assay type: in vivo, CD-1 mice; conditions: for Mean plasma concentration: LLOQ=10 ng/mL; for bioavailability: dose-normalised AUCINF, read-out: bioavailability (F)
Description: Mouse plasma PK studies were performed at Shanghai Ruizhi Chemical Research Co. Ltd. All experiments related to animals were conducted in compliance with the ethical guidelines approved by the Institutional Animal Care and Use Committee (IACUC) of the Shanghai Ruizhi Chemical Research Co. Ltd. Male CD-1 mice (6 to 8 weeks) were treated with the corresponding dose of drugs formulated in 5% glucose solution (D5W) delivered via intravenous injection via tail vein, intraperitoneal injection, or subcutaneous injection. Following administration, approximately 110 μl of blood was taken via facial vein […] at 0.083, 0.25, 0.5, 1, 2, 4, 8, and 24 hours into K2EDTA tubes. Blood samples were placed on ice and centrifuged to obtain plasma samples (2000g, 5 min under 4°C). Plasma samples were stored at approximately −70°C until analysis. The XT17 concentration in plasma PK studies was measured by liquid chromatography–tandem mass spectrometry (LC-MS/MS) assay using an LC-MS/MS-22 (Triple Quad 6500) instrument. Plasma concentrations versus time data and PK parameters were estimated from noncompartmental analysis using WinNonlin 8.2.

P. aeruginosa ATCC 9027 = assay: Murine corneal infection model; assay type: in vivo, mice; conditions: topical, 2 days; XT17 5 mg/ml, gatifloxacin 3 mg/ml; vs 5% glucose control
Description: (§1) Female C57BL/6 mice (average weight, 20 g) were used for the in vivo efficacy experiments. Mice were housed in a specific pathogen–free facility on a 12-hour light-dark cycle, under the condition with ad libitum access to irradiation sterilized rodent diet and aseptic water. […]. These in vivo experiments were approved by the Experimental Animal Center of South China Agricultural University and conducted in accordance with the policies of the Ministry of Health of China.
(§2) The in vivo efficacy of compound XT17 was investigated in a murine corneal infection model. Before infection, the mice were immunosuppressed with three intraperitoneal injections of cyclophosphamide (100 mg/kg) over 5 days. After anesthesia with 2.5% avertin (500 mg/kg, ip), the left corneas of mice were scratched with 15 μl of S. aureus ATCC 29213 or P. aeruginosa ATCC 9027 (approximately 5 × 10^7 CFU/ml). Following 1 day of infection, the infected mice were randomly assigned into […] (n = 5) and subsequently administered with 0.5% compound XT17, 5% glucose solution, 5% vancomycin, or 0.3% gatifloxacin topically. S. aureus–caused murine corneal infections were treated four times a day for three consecutive days. Only 2 days of treatment were given for P. aeruginosa–caused murine corneal infections. On the first day, the drug was administered every 20 min for 1 hour and then three times at 2-hour intervals on the second day. The mice were given a 5% glucose solution as a negative control in the absence of any antimicrobial agent treatment. The infected corneas were collected after the mice were euthanized, and the number of viable bacteria was counted using MHA plates.

S. aureus ATCC 29213 [4] = assay: Murine corneal infection model; assay type: in vivo, mice; conditions: topical, four times daily for 3 days; XT17 5 mg/ml, vancomycin 50 mg/ml; vs 5% glucose control
Description: as §1, §2

[5] = male, CD-1, mouse, plasma, ip, 20 mg/kg, ip 20 mg/kg
[6] = male, CD-1, mouse, plasma, iv, 5 mg/kg, IV 5 mg/kg
[7] = male, CD-1, mouse, plasma, sc, 40 mg/kg, sc 40 mg/kg
[8] = male, CD-1, mouse, plasma, IP 20 mg/kg
[9] = male, CD-1, mouse, plasma, IV 5 mg/kg
[10] = male, CD-1, mouse, plasma, SC 40 mg/kg

With CC(C)=CCOc1cc(OCCCNC(=N)N)cc2oc3cc(OCCCNC(=N)N)ccc3c(=O)c12 [XT17] the “fold increase in antibacterial activity” value ([1]; guanidine XT17 versus primary amine XT07) was 8- to 32 fold, the MIC ([1]; read-out: MICs against the tested strains) was 0.39 to 3.12 µg/mL (≈ 0.764 to 6.12 µM) and the “increase in MIC values during passages” value (S. aureus ATCC 29213 [2]) was “no more than fourfold increase”. The “fluorescence emission of compound upon binding to LPS” value (LPS) was “decreased in a concentration-dependent manner”, the MRTIast ([3]; IP 20 mg/kg) was 1.08 h and the Mean plasma concentration ([3]; IP 20 mg/kg, 24 hr) was “BQL”. For the same molecule, the Mean plasma concentration ([3]; IV 5 mg/kg, 8 hr) was “BQL”, the Mean plasma concentration ([3]; IV 5 mg/kg, 24 hr) was “BQL” and the MRTIast ([3]; SC 40 mg/kg) was 5.54 h. The “time blood concentrations maintained above MICs” value ([3]; iv single dose 5 mg/kg) was “more than 4 hours”, the bioavailability ([3]; male, CD-1, mouse, plasma, intraperitoneal, ip 20 mg/kg vs iv 5 mg/kg) was 69.7% and the Cmax ([3]; male, CD-1, mouse, plasma, ip, 20 mg/kg, IP 20 mg/kg) was 18400 ng/mL. It also gave a Cmax [3, 5] of 18400 ng/mL, a half-life [3, 5] of 61.2 min and a clearance [3, 6] of 9.68 mL/min/kg. The half-life [3, 6] was 28.7 min, the half-life ([3]; male, CD-1, mouse, plasma, iv, 5 mg/kg, iv 5 mg/kg) was 28.8 min and the Cmax ([3]; male, CD-1, mouse, plasma, iv, 5 mg/kg, iv 5 mg/kg, for bolus iv Cmax = C0) was 20300 ng/mL. It also gave a Cmax ([3]; male, CD-1, mouse, plasma, sc, 40 mg/kg, SC 40 mg/kg) of 8680 ng/mL, a Cmax [3, 7] of 8680 ng/mL and a half-life [3, 7] of 281 min. For the same molecule, the bioavailability ([3]; male, CD-1, mouse, plasma, subcutaneous, sc 40 mg/kg vs iv 5 mg/kg) was 87.3%, the AUC(0-inf) [3, 8] was 24000 ng·h/mL and the AUC(0-t) [3, 8] was 23900 ng·h/mL. The MRT inf [3, 8] was 1.13 h, the Tmax [3, 8] was 15 min and the concentration at 0.083 h [3, 8] was 17500 ng/mL. For the same molecule, the concentration at 0.25 h [3, 8] was 18400 ng/mL, the concentration at 0.5 h [3, 8] was 14100 ng/mL and the concentration at 1 h [3, 8] was 9190 ng/mL. The concentration at 2 h [3, 8] was 2770 ng/mL, the concentration at 4 h [3, 8] was 452 ng/mL and the concentration at 8 h ([3]; male, CD-1, mouse, plasma, IP 20 mg/kg, 8 hr) was 90.1 ng/mL. It also gave an AUC(0-inf) [3, 9] of 8610 ng·h/mL, an AUC(0-t) [3, 9] of 8590 ng·h/mL and an MRT inf [3, 9] of 0.42 h. It also gave an MRT last [3, 9] of 24.7 min, a concentration at 0.083 h [3, 9] of 20300 ng/mL and a concentration at 0.25 h [3, 9] of 7360 ng/mL. For the same molecule, the concentration at 0.5 h [3, 9] was 3630 ng/mL, the concentration at 1 h [3, 9] was 1770 ng/mL and the concentration at 2 h [3, 9] was 282 ng/mL. For the same molecule, the concentration at 4 h [3, 9] was 23.3 ng/mL, the Vd ([3]; male, CD-1, mouse, plasma, IV 5 mg/kg, read-out: Vss) was 0.244 L/kg and the AUC(0-inf) [3, 10] was 60100 ng·h/mL. The AUC(0-t) [3, 10] was 58800 ng·h/mL, the MRT inf [3, 10] was 6.07 h and the Tmax [3, 10] was 60 min. For the same molecule, the concentration at 0.083 h [3, 10] was 7730 ng/mL, the concentration at 0.25 h [3, 10] was 6690 ng/mL and the concentration at 0.5 h [3, 10] was 7340 ng/mL. It also gave a concentration at 1 h [3, 10] of 8680 ng/mL, a concentration at 2 h [3, 10] of 4620 ng/mL and a concentration at 4 h [3, 10] of 3560 ng/mL. For the same molecule, the concentration at 8 h ([3]; male, CD-1, mouse, plasma, SC 40 mg/kg, 8 hr) was 2810 ng/mL, the concentration at 24 h ([3]; male, CD-1, mouse, plasma, SC 40 mg/kg, 24 hr) was 188 ng/mL and the “time blood concentrations maintained above MICs” value ([3]; sc single dose 40 mg/kg) was “more than 8 hours”. For the same molecule, the “log reduction in viable bacterial colonies in the infected corneas” value (P. aeruginosa ATCC 9027) was 2.88 log and the “log reduction in viable bacterial colonies in the infected corneas” value (S. aureus ATCC 29213 [4]) was 6.10 log.
